Results taken from ChEMBL document CHEMBL3393036, “Tetra-substituted pyridinylimidazoles as dual inhibitors of p38α mitogen-activated protein kinase and c-Jun N-terminal kinase 3 for potential treatment of neurodegenerative diseases” (J Med Chem, 2015).

Tests used:
[1] = target: Insulin receptor (Homo sapiens) (UniProt P06213); experiment: Inhibition of INSR (unknown origin) at 5.5 uM by Caliper Mobility Shift Assay
[2] = target: Mitogen-activated protein kinase 8 (Homo sapiens) (UniProt P45983); experiment: Inhibition of JNK1 (unknown origin) at 5.5 uM by Caliper Mobility Shift Assay
[3] = target: Protein kinase C alpha type (Homo sapiens) (UniProt P17252); experiment: Inhibition of PRKCA (unknown origin) at 5.5 uM by Caliper Mobility Shift Assay
[4] = target: Tyrosine-protein kinase JAK1 (Homo sapiens) (UniProt P23458); experiment: Inhibition of JAK1 (unknown origin) at 5.5 uM by Caliper Mobility Shift Assay
[5] = target: Platelet-derived growth factor receptor alpha (Homo sapiens) (UniProt P16234); experiment: Inhibition of PDGFRa (unknown origin) at 5.5 uM by Caliper Mobility Shift Assay
[6] = target: Mitogen-activated protein kinase kinase kinase 8 (Homo sapiens) (UniProt P41279); experiment: Inhibition of MAP3K8 (unknown origin) at 5.5 uM by Caliper Mobility Shift Assay
[7] = target: MAP kinase-interacting serine/threonine-protein kinase 1 (Homo sapiens) (UniProt Q9BUB5); experiment: Inhibition of MKNK1 (unknown origin) at 5.5 uM by Caliper Mobility Shift Assay
[8] = target: Receptor-type tyrosine-protein kinase FLT3 (Homo sapiens) (UniProt P36888); experiment: Inhibition of FLT3 (unknown origin) at 5.5 uM by Caliper Mobility Shift Assay
[9] = target: Vascular endothelial growth factor receptor 2 (Homo sapiens) (UniProt P35968); experiment: Inhibition of KDR (unknown origin) at 5.5 uM by Caliper Mobility Shift Assay
[10] = target: Mitogen-activated protein kinase 14 (Homo sapiens, UniProt Q16539); experiment: Inhibition of p38alpha (unknown origin) assessed as phosphorylation of ATF-2 by ELISA
[11] = target: RAC-alpha serine/threonine-protein kinase (Homo sapiens) (UniProt P31749); experiment: Inhibition of AKT1 (PKBa) (unknown origin) at 5.5 uM by Caliper Mobility Shift Assay
[12] = target: Serine/threonine-protein kinase PAK 2 (Homo sapiens) (UniProt Q13177); experiment: Inhibition of PAK2 (unknown origin) at 5.5 uM by Caliper Mobility Shift Assay
[13] = target: ALK tyrosine kinase receptor (Homo sapiens) (UniProt Q9UM73); experiment: Inhibition of ALK (unknown origin) at 5.5 uM by Caliper Mobility Shift Assay
[14] = target: Mitogen-activated protein kinase 10 (Homo sapiens, UniProt P53779); experiment: Inhibition of JNK3 (unknown origin) assessed as phosphorylation of ATF-2 by ELISA
[15] = target: T1, Serine/threonine-protein kinase 4 (Homo sapiens) (UniProt Q13043); experiment: Inhibition of STK4 (unknown origin) at 5.5 uM by Caliper Mobility Shift Assay
T1 sequence (whole entry): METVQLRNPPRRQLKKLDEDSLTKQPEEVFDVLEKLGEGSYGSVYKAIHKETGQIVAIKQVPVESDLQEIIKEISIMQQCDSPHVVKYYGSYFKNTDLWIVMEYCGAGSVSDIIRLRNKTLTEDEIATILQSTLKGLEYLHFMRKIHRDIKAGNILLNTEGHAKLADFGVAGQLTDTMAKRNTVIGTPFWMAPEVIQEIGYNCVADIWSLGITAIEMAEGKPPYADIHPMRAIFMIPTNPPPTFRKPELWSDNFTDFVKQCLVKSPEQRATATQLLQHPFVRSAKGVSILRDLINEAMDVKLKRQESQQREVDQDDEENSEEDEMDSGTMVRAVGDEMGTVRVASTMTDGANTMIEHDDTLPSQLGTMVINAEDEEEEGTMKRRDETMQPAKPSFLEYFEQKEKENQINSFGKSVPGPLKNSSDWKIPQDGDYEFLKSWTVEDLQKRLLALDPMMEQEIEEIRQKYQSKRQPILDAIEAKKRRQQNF

[16] = target: Tyrosine-protein kinase ABL1 (Homo sapiens) (UniProt P00519); experiment: Inhibition of ABL1 (unknown origin) at 5.5 uM by Caliper Mobility Shift Assay
[17] = target: Fibroblast growth factor receptor 4 (Homo sapiens) (UniProt P22455); experiment: Inhibition of FGFR4 (unknown origin) at 5.5 uM by Caliper Mobility Shift Assay
[18] = target: TRAF2 and NCK-interacting protein kinase (Homo sapiens) (UniProt Q9UKE5); experiment: Inhibition of TNIK (unknown origin) at 5.5 uM by Caliper Mobility Shift Assay
[19] = target: Tyrosine-protein kinase Lyn (Homo sapiens) (UniProt P07948); experiment: Inhibition of LYN (unknown origin) at 5.5 uM by Caliper Mobility Shift Assay
[20] = target: Tyrosine-protein kinase Lck (Homo sapiens) (UniProt P06239); experiment: Inhibition of LCK (unknown origin) at 5.5 uM by Caliper Mobility Shift Assay
[21] = target: Proto-oncogene tyrosine-protein kinase receptor Ret (Homo sapiens) (UniProt P07949); experiment: Inhibition of RET (unknown origin) at 5.5 uM by Caliper Mobility Shift Assay
[22] = organism: Homo sapiens; experiment: Inhibition of CDK1B (unknown origin) at 5.5 uM by Caliper Mobility Shift Assay
[23] = target: Epidermal growth factor receptor (Homo sapiens) (UniProt P00533); experiment: Inhibition of EGFR (HER1) (unknown origin) at 5.5 uM by Caliper Mobility Shift Assay
[24] = organism: Homo sapiens; experiment: Inhibition of PRKACA(PKA) (unknown origin) at 5.5 uM by Caliper Mobility Shift Assay
[25] = target: Cyclin-dependent kinase 2 (Homo sapiens) (UniProt P24941); experiment: Inhibition of CDK2 (unknown origin) at 5.5 uM by Caliper Mobility Shift Assay
[26] = target: Tyrosine-protein kinase CSK (Homo sapiens) (UniProt P41240); experiment: Inhibition of CSK (unknown origin) at 5.5 uM by Caliper Mobility Shift Assay
[27] = target: Tyrosine-protein kinase SYK (Homo sapiens) (UniProt P43405); experiment: Inhibition of SYK (unknown origin) at 5.5 uM by Caliper Mobility Shift Assay
[28] = target: Cyclin-dependent kinase 4/cyclin D1 (Homo sapiens) (UniProt P11802+P24385); experiment: Inhibition of CDK4D1 (unknown origin) at 5.5 uM by Caliper Mobility Shift Assay; assay type: protein-complex assay
[29] = target: Mitogen-activated protein kinase 9 (Homo sapiens) (UniProt P45984); experiment: Inhibition of JNK2 (unknown origin) at 5.5 uM by Caliper Mobility Shift Assay
[30] = target: Interleukin-1 receptor-associated kinase 1 (Homo sapiens) (UniProt P51617); experiment: Inhibition of IRAK1 (unknown origin) at 5.5 uM by Caliper Mobility Shift Assay
[31] = target: Proto-oncogene tyrosine-protein kinase Src (Homo sapiens) (UniProt P12931); experiment: Inhibition of cSRC (unknown origin) at 5.5 uM by Caliper Mobility Shift Assay
[32] = target: Rho-associated protein kinase 2 (Homo sapiens) (UniProt O75116); experiment: Inhibition of ROCK2 (unknown origin) at 5.5 uM by Caliper Mobility Shift Assay

Tyrosine-protein kinase JAK1 (Homo sapiens), sequence (P23458 whole entry): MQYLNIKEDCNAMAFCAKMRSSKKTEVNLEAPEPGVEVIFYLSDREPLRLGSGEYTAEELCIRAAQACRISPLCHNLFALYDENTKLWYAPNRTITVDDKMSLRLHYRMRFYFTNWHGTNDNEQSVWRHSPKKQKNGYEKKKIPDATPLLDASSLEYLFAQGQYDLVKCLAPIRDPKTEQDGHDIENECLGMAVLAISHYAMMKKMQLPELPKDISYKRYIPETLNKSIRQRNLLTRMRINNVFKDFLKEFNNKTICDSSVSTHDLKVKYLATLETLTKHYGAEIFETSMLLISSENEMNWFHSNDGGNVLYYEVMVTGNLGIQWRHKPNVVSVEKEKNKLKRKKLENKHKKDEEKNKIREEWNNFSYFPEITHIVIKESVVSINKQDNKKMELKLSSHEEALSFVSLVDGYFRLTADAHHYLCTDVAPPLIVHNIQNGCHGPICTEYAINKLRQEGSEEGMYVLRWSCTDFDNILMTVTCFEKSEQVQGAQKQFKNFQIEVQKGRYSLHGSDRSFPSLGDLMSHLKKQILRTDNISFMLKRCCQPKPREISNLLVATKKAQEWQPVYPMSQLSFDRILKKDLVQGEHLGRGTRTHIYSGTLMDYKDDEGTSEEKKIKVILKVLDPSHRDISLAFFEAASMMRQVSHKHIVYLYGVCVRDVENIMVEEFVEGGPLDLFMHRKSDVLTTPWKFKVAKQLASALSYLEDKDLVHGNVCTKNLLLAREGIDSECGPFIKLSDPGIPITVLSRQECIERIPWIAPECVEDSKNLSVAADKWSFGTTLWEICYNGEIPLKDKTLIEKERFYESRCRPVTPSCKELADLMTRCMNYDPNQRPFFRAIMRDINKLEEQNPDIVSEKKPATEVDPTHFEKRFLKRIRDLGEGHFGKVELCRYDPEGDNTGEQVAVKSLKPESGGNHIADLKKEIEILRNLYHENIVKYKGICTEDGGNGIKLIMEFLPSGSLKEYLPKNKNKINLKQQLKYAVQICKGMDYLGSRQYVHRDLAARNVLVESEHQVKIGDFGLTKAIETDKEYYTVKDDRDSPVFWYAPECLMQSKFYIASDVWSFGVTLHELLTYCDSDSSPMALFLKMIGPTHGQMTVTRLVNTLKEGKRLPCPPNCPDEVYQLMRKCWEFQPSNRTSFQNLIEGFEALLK
Tyrosine-protein kinase ABL1 (Homo sapiens), sequence (P00519 whole entry): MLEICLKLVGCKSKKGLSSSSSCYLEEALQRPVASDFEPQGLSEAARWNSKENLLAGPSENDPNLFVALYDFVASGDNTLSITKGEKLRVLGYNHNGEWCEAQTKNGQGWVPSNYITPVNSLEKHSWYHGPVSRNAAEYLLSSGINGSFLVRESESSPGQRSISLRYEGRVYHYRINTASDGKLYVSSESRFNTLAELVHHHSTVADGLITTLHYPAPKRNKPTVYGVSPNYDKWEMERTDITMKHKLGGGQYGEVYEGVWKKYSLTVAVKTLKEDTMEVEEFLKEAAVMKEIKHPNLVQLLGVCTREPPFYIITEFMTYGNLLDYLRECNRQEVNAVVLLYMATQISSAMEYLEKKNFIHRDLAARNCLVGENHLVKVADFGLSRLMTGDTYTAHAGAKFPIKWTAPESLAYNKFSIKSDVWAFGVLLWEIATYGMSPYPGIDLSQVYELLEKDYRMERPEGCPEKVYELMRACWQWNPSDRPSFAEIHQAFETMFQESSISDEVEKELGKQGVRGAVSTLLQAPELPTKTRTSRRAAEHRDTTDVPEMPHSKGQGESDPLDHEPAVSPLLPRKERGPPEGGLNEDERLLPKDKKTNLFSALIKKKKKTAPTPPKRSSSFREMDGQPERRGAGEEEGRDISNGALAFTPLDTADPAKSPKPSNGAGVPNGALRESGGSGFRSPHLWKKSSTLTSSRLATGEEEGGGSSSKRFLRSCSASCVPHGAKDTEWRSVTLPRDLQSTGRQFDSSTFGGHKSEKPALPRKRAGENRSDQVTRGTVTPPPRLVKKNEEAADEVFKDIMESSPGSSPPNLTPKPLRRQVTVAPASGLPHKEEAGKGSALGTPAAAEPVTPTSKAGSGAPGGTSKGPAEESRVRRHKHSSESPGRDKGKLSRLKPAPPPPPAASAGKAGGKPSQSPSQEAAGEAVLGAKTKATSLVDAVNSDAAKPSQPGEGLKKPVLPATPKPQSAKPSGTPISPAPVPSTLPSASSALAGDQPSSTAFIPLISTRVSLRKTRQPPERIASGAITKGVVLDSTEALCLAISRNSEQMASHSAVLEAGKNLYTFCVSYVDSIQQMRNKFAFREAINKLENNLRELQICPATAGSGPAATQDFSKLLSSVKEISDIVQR
Proto-oncogene tyrosine-protein kinase receptor Ret (Homo sapiens), sequence (P07949 whole entry): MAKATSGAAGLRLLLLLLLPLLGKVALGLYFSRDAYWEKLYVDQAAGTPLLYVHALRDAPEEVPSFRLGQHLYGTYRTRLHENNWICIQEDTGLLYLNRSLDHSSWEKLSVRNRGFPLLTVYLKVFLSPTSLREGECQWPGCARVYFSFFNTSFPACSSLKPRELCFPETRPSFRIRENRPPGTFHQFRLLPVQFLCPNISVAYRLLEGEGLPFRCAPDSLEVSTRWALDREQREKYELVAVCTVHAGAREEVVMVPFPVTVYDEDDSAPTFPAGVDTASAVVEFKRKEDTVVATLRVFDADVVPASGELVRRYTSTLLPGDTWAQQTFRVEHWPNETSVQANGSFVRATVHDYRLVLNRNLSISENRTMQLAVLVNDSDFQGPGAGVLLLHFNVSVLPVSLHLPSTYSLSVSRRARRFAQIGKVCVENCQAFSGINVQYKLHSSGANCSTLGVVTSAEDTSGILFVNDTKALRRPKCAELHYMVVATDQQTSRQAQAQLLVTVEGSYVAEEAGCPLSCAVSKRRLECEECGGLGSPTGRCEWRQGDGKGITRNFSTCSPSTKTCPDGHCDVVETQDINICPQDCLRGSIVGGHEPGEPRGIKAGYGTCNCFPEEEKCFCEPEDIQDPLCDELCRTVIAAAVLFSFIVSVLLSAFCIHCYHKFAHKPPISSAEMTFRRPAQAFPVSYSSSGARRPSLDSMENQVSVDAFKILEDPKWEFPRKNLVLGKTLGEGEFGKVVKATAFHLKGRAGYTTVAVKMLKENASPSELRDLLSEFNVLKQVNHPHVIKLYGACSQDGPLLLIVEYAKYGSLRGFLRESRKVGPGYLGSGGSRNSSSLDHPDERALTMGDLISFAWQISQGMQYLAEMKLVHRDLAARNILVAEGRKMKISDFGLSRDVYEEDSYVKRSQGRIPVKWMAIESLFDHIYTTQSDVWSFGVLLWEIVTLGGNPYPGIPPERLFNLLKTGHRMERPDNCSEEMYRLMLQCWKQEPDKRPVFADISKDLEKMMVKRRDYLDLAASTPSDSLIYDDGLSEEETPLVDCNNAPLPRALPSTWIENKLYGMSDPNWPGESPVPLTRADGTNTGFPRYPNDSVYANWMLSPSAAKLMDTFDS
Mitogen-activated protein kinase 9 (Homo sapiens), sequence (P45984 whole entry, looked up): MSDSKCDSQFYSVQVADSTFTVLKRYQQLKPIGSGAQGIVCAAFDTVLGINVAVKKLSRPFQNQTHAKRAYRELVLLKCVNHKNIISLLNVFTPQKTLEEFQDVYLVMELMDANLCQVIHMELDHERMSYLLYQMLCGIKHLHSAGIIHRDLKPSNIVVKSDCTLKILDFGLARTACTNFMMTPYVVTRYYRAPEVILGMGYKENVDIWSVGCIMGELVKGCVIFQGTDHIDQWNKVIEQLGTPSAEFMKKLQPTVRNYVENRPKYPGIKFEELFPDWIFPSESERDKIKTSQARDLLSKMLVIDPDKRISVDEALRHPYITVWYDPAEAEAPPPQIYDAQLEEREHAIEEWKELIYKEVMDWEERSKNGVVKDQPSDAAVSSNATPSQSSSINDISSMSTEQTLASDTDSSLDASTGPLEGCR
Tyrosine-protein kinase Lck (Homo sapiens), sequence (P06239 2-509 limits assumed): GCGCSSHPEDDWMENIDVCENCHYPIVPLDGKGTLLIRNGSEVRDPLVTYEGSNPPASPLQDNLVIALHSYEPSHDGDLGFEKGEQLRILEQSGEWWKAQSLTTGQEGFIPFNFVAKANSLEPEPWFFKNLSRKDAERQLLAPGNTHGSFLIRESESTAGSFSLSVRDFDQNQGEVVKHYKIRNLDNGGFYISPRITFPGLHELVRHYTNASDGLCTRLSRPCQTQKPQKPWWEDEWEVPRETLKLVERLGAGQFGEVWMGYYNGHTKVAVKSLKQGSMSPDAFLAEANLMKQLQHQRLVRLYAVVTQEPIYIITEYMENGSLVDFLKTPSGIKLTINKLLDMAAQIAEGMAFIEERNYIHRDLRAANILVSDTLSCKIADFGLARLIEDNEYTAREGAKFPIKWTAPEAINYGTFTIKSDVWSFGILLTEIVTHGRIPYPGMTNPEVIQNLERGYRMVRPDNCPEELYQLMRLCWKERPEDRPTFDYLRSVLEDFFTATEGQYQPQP
Tyrosine-protein kinase Lyn (Homo sapiens), sequence (P07948 2-512 limits assumed): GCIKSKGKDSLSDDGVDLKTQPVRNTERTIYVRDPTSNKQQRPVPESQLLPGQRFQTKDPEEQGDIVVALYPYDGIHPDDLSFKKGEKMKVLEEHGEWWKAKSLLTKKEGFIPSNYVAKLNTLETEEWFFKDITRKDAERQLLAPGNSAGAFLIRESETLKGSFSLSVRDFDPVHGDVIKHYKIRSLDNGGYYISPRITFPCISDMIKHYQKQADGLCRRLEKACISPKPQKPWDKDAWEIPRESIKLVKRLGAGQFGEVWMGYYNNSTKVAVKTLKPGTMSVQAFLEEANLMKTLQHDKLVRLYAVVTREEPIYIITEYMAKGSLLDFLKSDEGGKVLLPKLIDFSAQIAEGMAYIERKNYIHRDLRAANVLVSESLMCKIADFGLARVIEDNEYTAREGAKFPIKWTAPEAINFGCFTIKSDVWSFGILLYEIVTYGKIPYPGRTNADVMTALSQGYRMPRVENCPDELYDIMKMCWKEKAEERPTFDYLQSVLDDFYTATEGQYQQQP

SMILES	inhibition [1] [%]	inhibition [2] [%]	inhibition [3] [%]	inhibition [4] [%]	inhibition [5] [%]	inhibition [6] [%]	inhibition [7] [%]	inhibition [8] [%]	inhibition [9] [%]	IC50 [10] [nM]	inhibition [11] [%]	inhibition [12] [%]	inhibition [13] [%]	IC50 [14] [nM]	inhibition [15] [%]	inhibition [16] [%]	inhibition [17] [%]	inhibition [18] [%]	inhibition [19] [%]	inhibition [20] [%]	further results
CC(=O)Nc1cc(-c2c(-c3ccc(F)cc3)nc(Sc3cccc(I)n3)n2C2CCCCC2)ccn1	< 50	< 50	< 50	< 50	< 50	< 50	< 50	< 50	< 50	356	< 50	< 50	< 50	1530	< 50	< 50	< 50	< 50	< 50	< 50	inhibition [21]: < 50%; inhibition [22]: < 50%; inhibition [23]: < 50%; inhibition [24]: < 50%; inhibition [25]: < 50%; inhibition [26]: < 50%; inhibition [27]: < 50%; inhibition [28]: < 50%; inhibition [29]: < 50%; inhibition [30]: < 50%; inhibition [31]: < 50%; inhibition [32]: < 50%
CC(=O)Nc1cc(-c2c(-c3ccc(F)cc3)nc(S/C=C\C(=O)O)n2C2CC2)ccn1	< 50	< 50	< 50	< 50	< 50	< 50	< 50	< 50	< 50	123	< 50	< 50	< 50	82	< 50	< 50	< 50	< 50	< 50	< 50	inhibition [21]: < 50%; inhibition [22]: < 50%; inhibition [23]: < 50%; inhibition [24]: < 50%; inhibition [25]: < 50%; inhibition [26]: < 50%; inhibition [27]: < 50%; inhibition [28]: < 50%; inhibition [29]: < 50%; inhibition [30]: < 50%; inhibition [31]: < 50%; inhibition [32]: < 50%
COC(Cn1c(SC2CCC(C(=O)O)CC2O)nc(-c2ccc(F)cc2)c1-c1ccnc(NC(C)=O)c1)OC (stereo not given)	< 50	< 50	< 50	< 50	< 50	< 50	< 50	< 50	< 50	135	< 50	< 50	< 50	2010	< 50	< 50	< 50	< 50	< 50	< 50	inhibition [21]: < 50%; inhibition [22]: < 50%; inhibition [23]: < 50%; inhibition [24]: < 50%; inhibition [25]: < 50%; inhibition [26]: < 50%; inhibition [27]: < 50%; inhibition [28]: < 50%; inhibition [29]: < 50%; inhibition [30]: < 50%; inhibition [31]: < 50%; inhibition [32]: < 50%
CC(=O)Nc1cc(-c2c(-c3ccc(F)cc3)nc(S/C=C\C(=O)O)n2C2CCCCC2)ccn1	< 50	< 50	< 50	< 50	< 50	< 50	< 50	< 50	< 50	165	< 50	< 50	< 50	133	< 50	< 50	< 50	< 50	< 50	< 50	inhibition [21]: < 50%; inhibition [22]: < 50%; inhibition [23]: < 50%; inhibition [24]: < 50%; inhibition [25]: < 50%; inhibition [26]: < 50%; inhibition [27]: < 50%; inhibition [28]: < 50%; inhibition [29]: < 50%; inhibition [30]: < 50%; inhibition [31]: < 50%; inhibition [32]: < 50%
CC(=O)Nc1cc(-c2c(-c3ccc(F)cc3)nc(S/C=C\C(=O)O)n2CC2CCCO2)ccn1 (racemic)	< 50	< 50	< 50	< 50	< 50	< 50	< 50	< 50	< 50	223	< 50	< 50	< 50	35	< 50	< 50	< 50	< 50	< 50	< 50	inhibition [21]: < 50%; inhibition [22]: < 50%; inhibition [23]: < 50%; inhibition [24]: < 50%; inhibition [25]: < 50%; inhibition [26]: < 50%; inhibition [27]: < 50%; inhibition [28]: < 50%; inhibition [29]: < 50%; inhibition [30]: < 50%; inhibition [31]: < 50%; inhibition [32]: < 50%
